Values quoted from earlier work in the PKSmart pharmacokinetics tables (Seal et al. 2025).

Assays:
[1] = Lombardo et al. 2013, J Clin Pharmacol 53:178, doi 10.1177/0091270012440282; conditions: for Vd / clearance: in vivo, iv; for fraction unbound: plasma
[2] = Lombardo, Berellini, Obach 2018, Drug Metab Dispos 46:1466, doi 10.1124/dmd.118.082966; conditions: human; for MRT / Vd / clearance / half-life: in vivo, iv; for fraction unbound: plasma

SMILES: Cc1cccc(C)c1NC(=O)NCCCNC(C)C
- Vd ([1]; dog): 1.2 L/kg
- clearance ([1]; dog): 13 mL/min/kg
- fraction unbound ([1]; dog): 0.7
- Vd ([1]; monkey): 3 L/kg
- clearance ([1]; monkey): 26.7 mL/min/kg
- fraction unbound ([1]; monkey): 0.69
- Vd ([1]; rat): 3.2 L/kg
- clearance ([1]; rat): 82 mL/min/kg
- fraction unbound ([1]; rat): 0.88
- MRT [2]: 5.2 h
- Vd [2]: 1.4 L/kg
- clearance [2]: 4.5 mL/min/kg
- half-life [2]: 300 min
- fraction unbound [2]: 0.86

SMILES: CN1CC[C@]23c4c5ccc(O)c4OC2C(=O)CC[C@H]3[C@H]1C5 (some centres undefined)
- Vd ([1]; dog): 5.8 L/kg
- clearance ([1]; dog): 71 mL/min/kg
- half-life [2]: 138 min

SMILES: Nc1ncnc2c1ncn2CCOCP(=O)(O)O
- Vd ([1]; dog): 1.3 L/kg
- clearance ([1]; dog): 5.3 mL/min/kg
- Vd ([1]; monkey): 0.81 L/kg
- clearance ([1]; monkey): 16 mL/min/kg
- Vd ([1]; rat): 1.6 L/kg
- clearance ([1]; rat): 22 mL/min/kg
- MRT [2]: 1.9 h
- Vd [2]: 0.42 L/kg
- clearance [2]: 3.7 mL/min/kg
- half-life [2]: 96 min

SMILES: CN(C)CCCC1(c2ccc(F)cc2)OCc2cc(C#N)ccc21 (centres undefined)
- Vd ([1]; dog): 10 L/kg
- clearance ([1]; dog): 14 mL/min/kg
- fraction unbound ([1]; dog): 0.444
- Vd ([1]; monkey): 10 L/kg
- clearance ([1]; monkey): 40 mL/min/kg
- fraction unbound ([1]; monkey): 0.399
- Vd ([1]; rat): 21 L/kg
- clearance ([1]; rat): 82 mL/min/kg
- fraction unbound ([1]; rat): 0.26
- MRT [2]: 47 h
- clearance [2]: 4.3 mL/min/kg
- half-life [2]: 1980 min

SMILES: Cc1ccsc1C(=CCCN1CCCC(C(=O)O)C1)c1sccc1C (centres undefined)
- Vd ([1]; rat): 2.05 L/kg
- clearance ([1]; rat): 89 mL/min/kg
- MRT [2]: 12 h
- Vd [2]: 1.1 L/kg
- clearance [2]: 1.6 mL/min/kg
- half-life [2]: 600 min

SMILES: CC(C)(C)NCC(O)COc1ccc(NC(=O)NC2CCCCC2)cc1 (centres undefined)
- Vd ([1]; rat): 4.5 L/kg
- clearance ([1]; rat): 47.5 mL/min/kg
- MRT [2]: 11 h
- Vd [2]: 3.3 L/kg
- clearance [2]: 4.9 mL/min/kg
- half-life [2]: 660 min

SMILES: O=[N+]([O-])O[C@@H]1CO[C@H]2[C@@H]1OC[C@@H]2O
- Vd ([1]; dog): 0.82 L/kg
- clearance ([1]; dog): 6.9 mL/min/kg
- clearance ([1]; rat): 2.5 mL/min/kg
- MRT [2]: 5.8 h
- Vd [2]: 0.7 L/kg
- clearance [2]: 2 mL/min/kg
- half-life [2]: 246 min

SMILES: CC(=O)Nc1nnc(S(N)(=O)=O)s1
- Vd ([1]; rat): 0.21 L/kg
- clearance ([1]; rat): 68 mL/min/kg
- fraction unbound ([1]; rat): 0.2
- MRT [2]: 9.5 h
- Vd [2]: 0.37 L/kg
- clearance [2]: 0.65 mL/min/kg
- fraction unbound [2]: 0.04

SMILES: O=C(O)Cc1ccccc1Nc1c(Cl)cccc1Cl
- Vd ([1]; dog): 0.19 L/kg
- clearance ([1]; dog): 1.4 mL/min/kg
- Vd ([1]; monkey): 0.32 L/kg
- clearance ([1]; monkey): 8.5 mL/min/kg
- Vd ([1]; rat): 1.39 L/kg
- clearance ([1]; rat): 16.8 mL/min/kg
- MRT [2]: 1 h
- Vd [2]: 0.22 L/kg
- clearance [2]: 3.5 mL/min/kg
- half-life [2]: 84 min

SMILES: Nc1ccn(C[C@@H](CO)OCP(=O)(O)O)c(=O)n1
- Vd ([1]; monkey): 0.8 L/kg
- clearance ([1]; monkey): 3.5 mL/min/kg
- Vd ([1]; rat): 2 L/kg
- clearance ([1]; rat): 0.7 mL/min/kg
- fraction unbound ([1]; rat): 1
- MRT [2]: 3.3 h
- Vd [2]: 0.49 L/kg
- clearance [2]: 2.5 mL/min/kg
- half-life [2]: 156 min

SMILES: C[C@@H](O)C1C(=O)N2C(C(=O)[O-])=C(SC3Cn4cnc[n+]4C3)[C@H](C)[C@H]12 (some centres undefined)
- Vd ([1]; dog): 0.21 L/kg
- clearance ([1]; dog): 4.7 mL/min/kg
- fraction unbound ([1]; dog): 0.94
- Vd ([1]; monkey): 0.25 L/kg
- clearance ([1]; monkey): 5.5 mL/min/kg
- Vd ([1]; rat): 0.19 L/kg
- clearance ([1]; rat): 13 mL/min/kg
- fraction unbound ([1]; rat): 0.96
- MRT [2]: 1.3 h
- Vd [2]: 0.2 L/kg
- clearance [2]: 2.5 mL/min/kg
- half-life [2]: 66 min
- fraction unbound [2]: 0.92

SMILES: CC[C@@]1(O)CC(=O)OCc2c1cc1n(c2=O)Cc2cc3cc(F)c(F)cc3nc2-1
- Vd ([1]; dog): 2.1 L/kg
- clearance ([1]; dog): 21.5 mL/min/kg
- Vd ([1]; rat): 2 L/kg
- clearance ([1]; rat): 23 mL/min/kg
- MRT [2]: 3.87 h
- Vd [2]: 1.42 L/kg
- clearance [2]: 8.42 mL/min/kg
- half-life [2]: 186 min
- fraction unbound [2]: 0.126

SMILES: COc1cc(NCc2ccc3nc(N)nc(N)c3c2C)cc(OC)c1OC
- Vd ([1]; dog): 11.7 L/kg
- clearance ([1]; dog): 33.2 mL/min/kg
- fraction unbound ([1]; dog): 1
- Vd ([1]; monkey): 1.56 L/kg
- clearance ([1]; monkey): 8.5 mL/min/kg
- fraction unbound ([1]; monkey): 0.1
- Vd ([1]; rat): 9.2 L/kg
- clearance ([1]; rat): 71.1 mL/min/kg
- MRT [2]: 17 h
- Vd [2]: 0.77 L/kg
- clearance [2]: 0.77 mL/min/kg
- half-life [2]: 1020 min
- fraction unbound [2]: 0.05
